Where a name gives a salt, the structure may show the parent alone.

The experiment deals with neurofibrillary tangles. The experiment can be described thus: Staining test on brain section of Alzheimer's disease patients. Format: binding, human. To be noted: 100 μM solution in 50% ethanol, 10 minutes, fluorescence microscope. An excerpt:
The procedure of staining test on the compounds of the present invention on the brain section of Alzheimer's disease patients is described below:
(1) We used the brain specimens of the temporal lobe or hippocampus from patients who were definitely diagnosed as having Alzheimer's disease pathology. The specimens were obtained from Choju Medical Institute, Fukushimura Hospital, our collaborating research institute, and the consent for use for research purposes was obtained from the patients' bereaved family (Fukushimura Hospital, Ethics Committee Approval No. 20).
(2) The paraffin-embedded brain tissue was sliced to 6 or 8 μm thickness, extended on a slide glass, and dried. The paraffinized brain section was deparaffinized by washing with xylene for 10 minutes×2, 100% ethanol for 5 minutes×2, 90% ethanol for 5 minutes, and running water for 10 minutes in this order.
(3) As a pretreatment for staining with the compounds of the present invention, the treatment to remove autofluorescence with lipofuscin was performed. First, the paraffinized brain section was immersed in 0.25% KMnO4 solution for 20 minutes. It was washed with PBS for 2 minutes twice, immersed in a 0.1% K2S2O5/oxalic acid solution for approximately 5 minutes, and further washed with PBS for 2 minutes 3 times.
(4) From 100 μM solution of the compounds of the present invention dissolved in 50% ethanol, approximately 150 μl was dropped on the section to react for 10 minutes. After being immersed in tap water 5 times, it was mounted with Flour Save Reagent (Calbiochem) and examined with a fluorescence microscope (Nikon, ECLIPSE 80i). The images were taken with a digital camera (Nikon, Dxin1200F or Photometrics, Cool SNAP ES).
For `CCNc1cccc2nc(-c3ccc(F)nc3)ccc12` [THK-5091, 5-ethylamino-2-(2-fluoropyrid-5-yl)quinoline], the “binding to neurofibrillary tangles in the brain section of Alzheimer's disease patients (staining test)” value (“binding to neurofibrillary tangles” below) was “bind to neurofibrillary tangles specifically and selectively”.
For `Nc1ccc2nc(-c3ccc(N)c(OCC(O)CF)c3)ccc2c1` (centres unmarked) [THK-5155, 6-amino-2-[4-(amino)-3-[(3-fluoro-2-hydroxy)propoxy]phenyl]quinoline], the “binding to neurofibrillary tangles” value is “bind to neurofibrillary tangles specifically and selectively”.
Consider `CN(C)c1ccc2nc(-c3ccc(N(C)C)c(OCC(O)CF)c3)ccc2c1` (centres unmarked) [THK-5156, 2-[3-[(3-fluoro-2-hydroxy)propoxy]-4-(dimethylamino)phenyl]-6-dimethylaminoquinoline], for which the “binding to neurofibrillary tangles” value is “bind to neurofibrillary tangles specifically and selectively”.
Turning to `CN(C)c1ccc(-c2ccc3ccc(OC(CO)CF)cc3n2)cc1` (centres unmarked) [THK-5071, 2-(4-fluoromethyl-2-hydroxyethoxy)-2-(4-dimethylaminophenyl)quinoline], the “binding to neurofibrillary tangles” value is “bind to neurofibrillary tangles specifically and selectively”.
For `CN1CCCc2cc(-c3ccc4cc(OCC(O)CF)ccc4n3)ccc21` (centres unmarked) [THK-5153, 6-[(3-fluoro-2-hydroxy)propoxy]-2-(1-methyl-1,2,3,4-tetrahydroquinolin-6-yl)quinoline], the “binding to neurofibrillary tangles” value was “bind to neurofibrillary tangles specifically and selectively”.
Take `Nc1ccc2nc(-c3ccc(F)cc3)ccc2c1` [THK-5086, 6-amino-2-(4-fluorophenyl)quinoline]: the “binding to neurofibrillary tangles” value is “bind to neurofibrillary tangles specifically and selectively”.
In the case of `CN(C)c1ccc2nc(-c3ccc(N)c(F)c3)ccc2c1` [THK-5128, 2-(4-amino-3-fluorophenyl)-6-dimethylaminoquinoline], the “binding to neurofibrillary tangles” value is “bind to neurofibrillary tangles specifically and selectively”.
On to `CN(C)c1ccc2ccc(-c3ccc(F)cc3)nc2c1` [THK-5076, 2-(4-fluorophenyl)-7-dimethylaminoquinoline], for which the “binding to neurofibrillary tangles” value is “bind to neurofibrillary tangles specifically and selectively”.
The entry for `CN(C)c1cccc2nc(-c3ccc(F)cc3)ccc12` [THK-5080, 2-(4-fluorophenyl)-5-dimethylaminoquinoline oxalate] is “bind to neurofibrillary tangles specifically and selectively”; for `CCN(CC)c1ccc(-c2ccc3c(OC(CO)CF)cccc3n2)cc1` (centres unmarked) [THK-5064, 2-(4-diethylaminophenyl)-5-(1-fluoromethyl-2-hydroxyethoxy)quinoline] it is “bind to neurofibrillary tangles specifically and selectively”; for `CCN(CC)c1cccc2nc(-c3ccc(F)nc3)ccc12` [THK-5092, 5-diethylamino-2-(2-fluoropyrid-5-yl)quinoline] it is “bind to neurofibrillary tangles specifically and selectively”.
With `CCN(CC)c1ccc(-c2cc(OCC(O)CF)c3ccccc3n2)cc1` (centres unmarked) [THK-5059, 2-(4-diethylaminophenyl)-4-(3-fluoro-2-hydroxypropoxy)quinoline], the “binding to neurofibrillary tangles” value is “bind to neurofibrillary tangles specifically and selectively”.
For `CNc1ccc(-c2ccc3ccc(OC(CO)CF)cc3n2)cc1` (centres unmarked) [THK-5077, 7-(1-fluoromethyl-2-hydroxyethoxy)-2-(4-methylaminophenyl)quinoline], the “binding to neurofibrillary tangles” value is “bind to neurofibrillary tangles specifically and selectively”.
`Nc1cccc2nc(-c3ccc(F)cc3)ccc12` [THK-5079, 5-amino-2-(4-fluorophenyl)quinoline]: the “binding to neurofibrillary tangles” value is “bind to neurofibrillary tangles specifically and selectively”.

For the origin of these results see patent publication US9452985B2, “Tau imaging probe” (GE Healthcare Limited, priority 2010, dated 2016).
